In patent US7960433B2, “Treatment of chemokine mediated diseases” (Schering Corporation, priority 2002, dated 2011):

Columns and labels:
[1] = test system: carrageenan-induced paw edema; experiment: Carrageenan-induced rat paw edema model: paw volume; format: in vivo, male Sprague-Dawley rats; conditions: oral, 1 hr before carrageenan, paw volume at 3 h; suboptimal doses: Compound A 1 mg/kg, indomethacin 0.5 mg/kg, betamethasone 0.05 mg/kg, alone or combined
Protocol: (§1) Carrageenan (0.05 ml of an 1% solution in saline) was injected into one hindpaw of male Sprague-Dawley rats. […] The increase in paw volume that occurred between the two timepoints was determined for each group. Rats received Compound A: [drawing 179] (see Example 405 of WO 02/083624) or standard drugs in methylcellulose vehicle by the oral route, 1 hr before carrageenan injection. The percentage by which the edematous response was inhibited was calculated by comparing the increase in paw edema of drug-treated rats to that of vehicle-treated controls. To determine neutrophil accumulation in the paws, rats were sacrificed at 3 hrs and myeloperoxidase (MPO) activity was measured from inflammatory fluid expressed from the hindpaw using a colorimetric assay (Bradley et al., 1982). PGE2 production in the hindpaw was assessed by ELISA (R&D Systems, Minneapolis, Minn.).

[2] = test system: myeloperoxidase (MPO) activity; experiment: Carrageenan-induced rat paw edema model: MPO activity in hindpaw inflammatory fluid (neutrophil accumulation); format: in vivo, male Sprague-Dawley rats; conditions: oral, 3 hrs after carrageenan; Compound A 1 mg/kg, indomethacin 0.5 mg/kg, alone or combined
Protocol: Carrageenan (0.05 ml of an 1% solution in saline) was injected into one hindpaw of male Sprague-Dawley rats. Paw volumes (ml) were measured by a water displacement plethysmometer prior to and 3 h after the injection of carrageenan. The increase in paw volume that occurred between the two timepoints was determined for each group. Rats received Compound A:
[drawing 179] (see Example 405 of WO 02/083624) or standard drugs in methylcellulose vehicle by the oral route, 1 hr before carrageenan injection. The percentage by which the edematous response was inhibited was calculated by comparing the increase in paw edema of drug-treated rats to that of vehicle-treated controls. To determine neutrophil accumulation in the paws, rats were sacrificed at 3 hrs and myeloperoxidase (MPO) activity was measured from inflammatory fluid expressed from the hindpaw using a colorimetric assay (Bradley et al., 1982). PGE2 production in the hindpaw was assessed by ELISA (R&D Systems, Minneapolis, Minn.).

[3] = test system: SCW-induced knee swelling; experiment: Streptococcal cell wall-induced mouse knee swelling model: knee swelling; format: in vivo, female C57BL/6J mice; conditions: 2 hours after SCW injection
Protocol: (§2) The method described by Lubberts et al, 1998 was used for these studies, with some modifications. Female 8-12 week old C57BL/6J animals were fasted overnight and dosed orally with Compound A, indomethacin, or a combination of these agents suspended in methylcellulose one hour prior to a single intra-articular injection of 6 μl containing 25 μg of bacterial SCW (4.32 mg/ml rhammose; Lee Laboratories, Grayson, Ga.) in saline into the right knee joint. The left knee joint received an injection of 6 μl of saline at the same time. In other experiments, a neutralizing rat anti-mouse TNFα antibody or matched rat IgG isotype control was administered intraperitoneally two hours prior to SCW injection and Compound A or methylcellulose vehicle was orally administered one hour prior to SCW injection. Knee swelling measurements were performed 2 hours after SCW injection using a dial-gauge caliper ([…], Athol, Mass.) by measuring the difference in swelling between the right and left knee joints. Patellar organ cultures for assessment of synovial cytokine and chemokine and prostaglandin levels were prepared at 2 hours after SCW injection and established as described (Lubberts et al, 1998), using ELISA kits obtained from R&D Systems (Minneapolis, Minn.). Statistical analysis was performed using the Student's t-test, with p<0.05 considered to be indicative of statistical significant differences between groups.

IL-1β = experiment: SCW mouse knee model: IL-1β production by ex vivo patellar organ culture; format: in vivo, female C57BL/6J mice
Protocol: as §2

PGE2 [4] = experiment: SCW mouse knee model: PGE2 levels in patellar organ culture; format: in vivo, female C57BL/6J mice
Protocol: as §2, with “Statistical analysis was performed using the Student's t-test, with p<0.05 considered to be indicative of statistical significant differences between groups.” left out

PGE2 [5] = experiment: Carrageenan-induced rat paw edema model: PGE2 production in the hindpaw (ELISA); format: in vivo, male Sprague-Dawley rats; conditions: oral; Compound A 1 mg/kg, betamethasone 0.05 mg/kg, alone or combined
Protocol: as §1

[6] = indomethacin alone (2 mg/kg oral)

SMILES	inhibition of paw edema [1] [%]	inhibition of MPO activity in the hindpaw [2] [%]	inhibition of knee swelling ([3]; indomethacin 2 mg/kg oral alone) [%]	inhibition of IL-1β production by ex vivo patellar organ culture (IL-1β; [6]) [%]	inhibition of PGE2 levels in patellar organ culture (PGE2 [4]; [6]) [%]	inhibition of paw PGE2 levels (PGE2 [5]) [%]	inhibition of knee swelling ([3]; Compound A 10 mg/kg oral, alone or with indomethacin 2 mg/kg) [%]	inhibition of knee swelling ([3]; Compound A 25 mg/kg oral, alone or with indomethacin 2 mg/kg) [%]	inhibition of IL-1β production by ex vivo patellar organ culture (IL-1β; Compound A 10 mg/kg oral, alone or with indomethacin) [%]	inhibition of IL-1β production by ex vivo patellar organ culture (IL-1β; Compound A 25 mg/kg oral, alone or with indomethacin) [%]	inhibition of PGE2 levels in patellar organ culture (PGE2 [4]; Compound A alone at 10-25 mg/kg oral)
COc1ccc2c(c1)c(CC(=O)O)c(C)n2C(=O)c1ccc(Cl)cc1 [indomethacin, reference compound]	0	−58	42	11	89	–	–	–	–	–	–
C[C@H]1C[C@H]2[C@@H]3CCC4=CC(=O)C=C[C@]4(C)[C@@]3(F)[C@@H](O)C[C@]2(C)[C@@]1(O)C(=O)CO [betamethasone, reference compound]	32	–	–	–	–	31	–	–	–	–	–
CC[C@@H](Nc1c(Nc2cccc(C(=O)N(C)C)c2O)c(=O)c1=O)c1ccc(C)o1 [Compound A]	20	67	–	–	–	31	46	70	49	64	34-40%
